Measured values published in article PMC9652372, “Glycolytic flux control by drugging phosphoglycolate phosphatase” (Nature Communications, 2022).
“And” between values parts separate entries of the source, which are not always exact repeats. Identical values can stand only once.

Legend:
[1] = tested on: HT1080 cells; assay: Cell viability assay (AquaBluer); assay type: cell-based, human
Protocol: Cell viability was assessed using AquaBluer according to the manufacturer’s recommendations (MultiTarget Pharmaceuticals, LLC). Fluorescence (excitation: 540 nm; emission: 590 nm) was analyzed on a Clariostar microplater reader.

[2] = tested on: HT1080 cells; assay: NMR quantification of cellular metabolites; assay type: cell-based, human; as to 1-Methylnicotinamide (NMR metabolite level): unit not given here; as to Acetic acid (NMR metabolite level): unit not given here; as to Glutathione (NMR metabolite level): unit not given here; as to Glycerol 3-phosphate (NMR metabolite level): unit not given here; as to Glycine (NMR metabolite level): unit not given here; as to L-Lactic acid (NMR metabolite level): unit not given here; as to L-Lysine (NMR metabolite level): unit not given here; as to L-Tyrosine (NMR metabolite level): unit not given here; as to L-Valine (NMR metabolite level): unit not given here; as to Phosphocreatine (NMR metabolite level): unit not given here; as to Pyroglutamate (NMR metabolite level): unit not given here; as to Taurine (NMR metabolite level): unit not given here; as to Tryptophan (NMR metabolite level): unit not given here

## O=C(Nc1ccccc1C(=O)O)c1ccc(Oc2ccc(C(=O)Nc3ccccc3C(=O)O)cc2)cc1 [CP1]
[1]; CP1 10µM
  fluorescence intensity: 73536.5 arbitrary units and 54985.5 arbitrary units and 58790.8 arbitrary units
[1]; CP1 33 µM
  fluorescence intensity: 67669 arbitrary units and 60068 arbitrary units and 61386.5 arbitrary units
[1]; CP1 100 µM
  fluorescence intensity: 68775 arbitrary units and 63101.8 arbitrary units and 70832.2 arbitrary units
[1]; CP1 200 µM
  fluorescence intensity: 68392.2 arbitrary units and 53769.5 arbitrary units
[1]; HT1080 cells, 100 µM, 24 h
  cytotoxicity: not cytotoxic
[2]; HT1080 cells, 3 h, 33 µM CP1
  change of acetate levels: −42%
  change of alanine levels: −52%
  change of lactate levels: −45%
  change of pyruvate levels: −10%
[2]; T3: 3h CP1-treated, Exp #1-5
  1-Methylnicotinamide (NMR metabolite level): 0.0004582 and 0.0004235 and 0.0007003 and 0.0006519 and 0.0004828
  2-Hydroxyglutarate (NMR metabolite level): 0.01261 and 0.01491 and 0.01314 and 0.01427 and 0.01273
  ATP (NMR metabolite level): 0.001497 and 0.001391 and 0.001868 and 0.001572 and 0.001599
  Acetic acid (NMR metabolite level): 0.004551 and 0.004658 and 0.004836 and 0.004678 and 0.004285
  Choline (NMR metabolite level): 0.0005498 and 0.0005142 and 0.0005336 and 0.0006902 and 0.0006337
  Creatine (NMR metabolite level): 0.00675 and 0.006504 and 0.00667 and 0.008321 and 0.006277
  D-Glucose (NMR metabolite level): 0.1212 and 0.1286 and 0.1124 and 0.1017 and 0.1229
  Dimethylamine (NMR metabolite level): 0.03604 and 0.03364 and 0.02538 and 0.0283 and 0.03615
  Formic acid (NMR metabolite level): 0.001497 and 0.001482 and 0.001868 and 0.001994 and 0.001569
  Fumaric acid (NMR metabolite level): 0.0003054 and 0.0002722 and 0.0003001 and 0.0003451 and 0.0003319
  Glutathione (NMR metabolite level): 0.01109 and 0.01041 and 0.01101 and 0.01265 and 0.01144
  Glycerol 3-phosphate (NMR metabolite level): 0.005205 and 0.004086 and 0.005958 and 0.005982 and 0.004016
  Glycine (NMR metabolite level): 0.01387 and 0.01388 and 0.01587 and 0.01515 and 0.01301
  Histidine (NMR metabolite level): 0.001863 and 0.001573 and 0.001667 and 0.001611 and 0.00166
  L-Alanine (NMR metabolite level): 0.003726 and 0.003932 and 0.003735 and 0.003681 and 0.003651
  L-Arginine (NMR metabolite level): 0.003085 and 0.0036 and 0.003035 and 0.003183 and 0.004798
  L-Aspartic acid (NMR metabolite level): 0.006078 and 0.006201 and 0.007304 and 0.006941 and 0.006337
  L-Glutamic acid (NMR metabolite level): 0.03955 and 0.04114 and 0.04112 and 0.04632 and 0.04125
  L-Glutamine (NMR metabolite level): 0.1032 and 0.09634 and 0.112 and 0.1011 and 0.1019
  L-Isoleucine (NMR metabolite level): 0.008064 and 0.008046 and 0.007837 and 0.007708 and 0.008178
  L-Lactic acid (NMR metabolite level): 0.03287 and 0.03079 and 0.03432 and 0.03474 and 0.0328
  L-Leucine (NMR metabolite level): 0.008094 and 0.008077 and 0.008637 and 0.008321 and 0.007846
  L-Lysine (NMR metabolite level): 0.005651 and 0.005687 and 0.005569 and 0.005062 and 0.005432
  L-Methionine (NMR metabolite level): 0.002474 and 0.002571 and 0.002635 and 0.002454 and 0.002656
  L-Phenylalanine (NMR metabolite level): 0.004704 and 0.004749 and 0.004702 and 0.00464 and 0.004708
  L-Threonine (NMR metabolite level): 0.0135 and 0.01422 and 0.01357 and 0.01411 and 0.01304
  L-Tyrosine (NMR metabolite level): 0.004795 and 0.004537 and 0.004569 and 0.004755 and 0.004798
  L-Valine (NMR metabolite level): 0.007911 and 0.008379 and 0.00757 and 0.007631 and 0.008117
  NAD+ (NMR metabolite level): 0.001405 and 0.001331 and 0.001634 and 0.001764 and 0.001509
  Phosphocreatine (NMR metabolite level): 0.002352 and 0.00245 and 0.002668 and 0.002838 and 0.002474
  Phosphorylcholine (NMR metabolite level): 0.007361 and 0.007078 and 0.008004 and 0.008743 and 0.00688
  Pyroglutamate (NMR metabolite level): 0.007789 and 0.006927 and 0.008071 and 0.008015 and 0.007303
  Pyruvate (NMR metabolite level): 0.004887 and 0.004931 and 0.004602 and 0.004755 and 0.004949
  Serine (NMR metabolite level): 0.006414 and 0.007411 and 0.00707 and 0.007401 and 0.006729
  Succinic acid (NMR metabolite level): 0.001344 and 0.001543 and 0.001501 and 0.001841 and 0.001207
  Taurine (NMR metabolite level): 0.006506 and 0.007653 and 0.005636 and 0.009663 and 0.004858
  Tryptophan (NMR metabolite level): 0.0008552 and 0.0007865 and 0.0009671 and 0.0008436 and 0.0007846
  UDP-N-Acetylglucosamine (NMR metabolite level): 0.00171 and 0.001573 and 0.002001 and 0.002147 and 0.00178
  UDP-glucose (NMR metabolite level): 0.0008858 and 0.0008772 and 0.001067 and 0.000997 and 0.0009053
  myo-Inositol (NMR metabolite level): 0.01161 and 0.01092 and 0.01214 and 0.0158 and 0.01228
[2]; T24: 24h CP1-treated, Exp #1-5
  1-Methylnicotinamide (NMR metabolite level): 0.0006688 and 0.0007226 and 0.00078 and 0.0009117 and 0.0008029
  2-Hydroxyglutarate (NMR metabolite level): 0.01123 and 0.01613 and 0.01677 and 0.01849 and 0.01776
  ADP (NMR metabolite level): 0.0007644 and 0.000746 and 0.001198 and 0.0008611 and 0.0008531
  ATP (NMR metabolite level): 0.0006449 and 0.0006294 and 0.0008357 and 0.0006838 and 0.0006775
  Acetic acid (NMR metabolite level): 0.003416 and 0.003823 and 0.003426 and 0.003622 and 0.002835
  Choline (NMR metabolite level): 0.0001911 and 0.0002098 and 0.0002507 and 0.0002533 and 0.0003011
  Creatine (NMR metabolite level): 0.005637 and 0.005968 and 0.005822 and 0.005673 and 0.00685
  Dimethylamine (NMR metabolite level): 0.01722 and 0.009371 and 0.01178 and 0.009801 and 0.01006
  Fumaric acid (NMR metabolite level): 0.0003583 and 0.0003497 and 0.0003621 and 0.0004052 and 0.0003764
  Glutathione (NMR metabolite level): 0.00848 and 0.006947 and 0.009193 and 0.008991 and 0.00828
  Glycerol 3-phosphate (NMR metabolite level): 0.005316 and 0.003498 and 0.00363 and 0.003634 and 0.003759
  Glycerophosphocholine (NMR metabolite level): 0.0005972 and 0.0004662 and 0.000585 and 0.0005065 and 0.0006022
  Glycine (NMR metabolite level): 0.01727 and 0.01921 and 0.02014 and 0.02011 and 0.0205
  L-Alanine (NMR metabolite level): 0.006617 and 0.007063 and 0.007716 and 0.007015 and 0.00695
  L-Arginine (NMR metabolite level): 0.002054 and 0.001585 and 0.002006 and 0.001975 and 0.001807
  L-Aspartic acid (NMR metabolite level): 0.003296 and 0.003217 and 0.003844 and 0.003495 and 0.003463
  L-Glutamic acid (NMR metabolite level): 0.03982 and 0.04634 and 0.04538 and 0.047 and 0.04456
  L-Glutamine (NMR metabolite level): 0.05231 and 0.05105 and 0.05192 and 0.04586 and 0.05314
  L-Isoleucine (NMR metabolite level): 0.007907 and 0.007716 and 0.008078 and 0.007775 and 0.007703
  L-Lactic acid (NMR metabolite level): 0.08184 and 0.08616 and 0.0795 and 0.07679 and 0.07736
  L-Leucine (NMR metabolite level): 0.00676 and 0.006597 and 0.007883 and 0.007192 and 0.007251
  L-Lysine (NMR metabolite level): 0.002293 and 0.002238 and 0.002674 and 0.002431 and 0.002409
  L-Methionine (NMR metabolite level): 0.002389 and 0.002331 and 0.002786 and 0.00276 and 0.002509
  L-Phenylalanine (NMR metabolite level): 0.004013 and 0.003916 and 0.004123 and 0.003976 and 0.003889
  L-Threonine (NMR metabolite level): 0.01522 and 0.01471 and 0.01638 and 0.01537 and 0.01478
  L-Tyrosine (NMR metabolite level): 0.004491 and 0.004849 and 0.004652 and 0.004635 and 0.00424
  L-Valine (NMR metabolite level): 0.007668 and 0.007693 and 0.007744 and 0.00775 and 0.007678
  N,N-Dimethylformamide (NMR metabolite level): 0.0002389 and 0.0002331 and 0.0002786 and 0.0002533 and 0.0002509
  NAD+ (NMR metabolite level): 0.002341 and 0.002611 and 0.002619 and 0.002533 and 0.002635
  NADH (NMR metabolite level): 0.0002389 and 0.0002331 and 0.0003343 and 0.0002786 and 0.0002509
  Phosphocreatine (NMR metabolite level): 0.001027 and 0.001002 and 0.001198 and 0.001165 and 0.001179
  Phosphorylcholine (NMR metabolite level): 0.002054 and 0.002168 and 0.002256 and 0.002102 and 0.002158
  Pyroglutamate (NMR metabolite level): 0.005255 and 0.004942 and 0.004596 and 0.005597 and 0.005796
  Pyruvate (NMR metabolite level): 0.001983 and 0.001422 and 0.001532 and 0.001798 and 0.001932
  Serine (NMR metabolite level): 0.005566 and 0.004965 and 0.004429 and 0.005901 and 0.004792
  Taurine (NMR metabolite level): 0.00922 and 0.008998 and 0.009499 and 0.01099 and 0.01194
  Tryptophan (NMR metabolite level): 0.0007883 and 0.0007693 and 0.0007243 and 0.0007851 and 0.0008029
  UDP-N-Acetylglucosamine (NMR metabolite level): 0.003941 and 0.005105 and 0.006156 and 0.005242 and 0.005269
  UDP-glucose (NMR metabolite level): 0.001935 and 0.001888 and 0.002981 and 0.002533 and 0.002559
  myo-Inositol (NMR metabolite level): 0.007859 and 0.009021 and 0.01109 and 0.01281 and 0.00961
